The nature of series [1]: Blood-brain barrier (BBB) permeability in rats. The class given is in vivo, SD rats. The conditions noted are these: for Kp at 2 h / concentration at 2 h: rat, female SD rats, 100 mg/kg QD, 2 h after administration; for Kp at 2 h: brain/plasma, read-out: B/P ratio. The protocol: Six female SD rats (200-300 g, 6-8 weeks) were randomized into 2 groups, 3 rats/group. Each rat was given the compounds of the present invention, and the vehicle was 0.5% methylcellulose aqueous solution. Animals were fed with water as usual and fasted overnight before the experiment, and feeding was resumed four hours after administration. Plasma and brain tissue were collected from rats of each group 2 h after administration. The whole blood sample collected was placed in a K2EDTA anticoagulation tube and centrifuged for 5 min (12,000 rpm, 4° C.) and then the plasma was taken for later detection. After tissue collection, the tissue was dried with filter paper, and the samples were stored in a -80° C. freezer for later detection.
10 µL of the rat plasma sample was taken and 150 µL of acetonitrile solvent (wherein an internal standard compound was contained) was added to precipitate proteins. After the mixture was vortexed for 5 min, centrifugation (14,000 rpm) was performed for 5 min. The supernatant was diluted 2-fold with water containing 0.1% (v/v) FA and injected into the LC-MS/MS system (AB Sciex Triple Quad 6500+) for the quantitative detection. For the 10x diluted samples, 2 µL of the sample was taken and 18 µL of blank plasma was added. After the mixture was vortexed for 0.5 min, 300 µL of acetonitrile solvent (wherein an internal standard compound was contained) was added to precipitate proteins. The other processing steps were identical to those for the samples not diluted. A calibration standard curve was prepared in SD rat plasma along with plasma quality control samples to determine the plasma concentration.
Brain tissue samples from rat were first homogenized with 4 times the mass volume of PBS homogenate. 20 µL of brain tissue homogenate sample was taken, and 20 µL of blank mouse plasma was added. The mixture was diluted and mixed uniformly, and 600 µL of acetonitrile solvent (wherein an internal standard compound was contained) was added to precipitate proteins. After the mixture was vortexed for 5 min, centrifugation (14,000 rpm) was performed for 5 min. The supernatant was diluted 2-fold with water containing 0.1% (v/v) FA and injected into the LC-MS/MS system (AB Sciex Triple Quad 6500+) for the quantitative detection.

The next series deals with MCF-7 subcutaneous tumor. Briefly: Growth inhibition in MCF-7 subcutaneous tumor model in mice. The class given is in vivo, NPG mice. The conditions noted are these: for TGI: 3 weeks; for Average tumor volume Day 0: Day 0 (grouping); for Effect on body weight of mice: at the doses tried. As for the experimental part: Cell inoculation: 0.1 ml/(containing 1 × 10^7) MCF-7 cell suspension (volume ratio of D-PBS : Matrigel = 1 : 1) was inoculated subcutaneously on the right back of each mouse, and the mice were inoculated subcutaneously with 17β-estradiol tablets four days before the cell inoculation.
Administration: The compound # Example 1 was administered at a dose of 1, 3, or 10 mg/kg, orally (PO), once daily (QD) for 3 weeks. The compound # Example 2 was administered at a dose of 10 mg/kg, orally (PO), once daily (QD) for 3 weeks. 8 mice were in the vehicle group and 6 mice were in the administration group.
The diameter of the tumor was measured with vernier calipers twice weekly. The calculation formula of tumor volume was V = 0.5a × b^2, wherein a and b represented the long and short diameters of the tumor, respectively. The body weights of the mice were weighed twice weekly.
The tumor-inhibiting efficacy of the compound was evaluated using tumor growth inhibition (TGI) (%).

A further series concerns MCF-7 intracranial tumor. The series can be described thus: Growth inhibition in MCF-7 intracranial tumor model in mice. The conditions noted are these: 30 mg/kg PO once daily. As for the experimental part:
Animal information: NPG mice (female, 6-8 weeks, body weight: about 17-29 g) were purchased from Beijing Vitalstar Biotechnology Co., Ltd. The mice were fed in SPF environment and each cage position was individually ventilated.
Cell culture: The human breast cancer MCF-7 cell line was cultured in vitro in EMEM (cell culture medium) supplemented with 10% fetal bovine serum, 1% Pen Strep and 10 µg/ml recombinant human insulin in a 37° C., 5% CO2 incubator. Conventional digestion treatment with 0.25% trypsin-EDTA digestion solution was carried out twice weekly for passage. When the cell saturation was 80%-90%, and the number reached the requirement, the cells were collected and counted.
Cell inoculation: 15 µl/(containing 2 × 10^6) MCF-7 cell suspension was inoculated into the brain of mice using a stereotaxic apparatus, a micro-injection pump and a miniature handheld cranial drill, and the mice were subcutaneously inoculated with 17β-estradiol tablets three days before the cell inoculation. On day 8 after cell inoculation, the mice were randomized into groups for administration according to the body weight thereof, and the day of grouping was Day 0.
11 mice were in the vehicle group and 8 mice were in the administration group. Mice in all groups were continuously administered until the mice died, which were euthanized due to poor state or the end of the experiment.
The body weight of the mice was measured twice weekly, and the survival status of the mice was observed.
At the end of the experiment on Day 48, all mice were euthanized.

Setting [2] is: brain, read-out: Drug concentration in brain.
Where [3] appears, read: plasma, read-out: Drug concentration in plasma.

Like-named read-outs stand apart in the source and are kept apart here.

Turning to `C[C@@H]1Cc2c([nH]c3ccccc23)C(c2c(F)cc(N[C@H]3CCN(CCCF)C3)cc2F)N1CC(F)(F)CO` (stereo in doubt) [Example 7, 3-((1S,3R)-1-(2,6-difluoro-4-(((S)-1-(3-fluoropropyl)pyrrolidin-3-yl)amino)phenyl)-3-methyl-3,4-dihydro-1H-pyridino [3,4-b]indole-2(9H)-yl)-2,2-difluoropropane-1-ol], the Kp at 2 h in series [1] turned out to be 0.28. For the same compound, the concentration at 2 h in series [1] (setting [2]) amounted to 703 ng/g. For the same compound, the concentration at 2 h in series [1] (setting [3]) came to 2540 ng/mL. In the series with MCF-7 subcutaneous tumor (10 mg/kg PO QD), the TGI was 140.09%, the “Average tumor volume Day 0” value was 170 mm^3 and the “Average tumor volume Day 21” value is 80 mm^3. Further, the “Effect on body weight of mice” value with MCF-7 subcutaneous tumor is on record as “do not significantly affect the body weight”.
Turning to `C[C@@H]1Cc2c([nH]c3ccccc23)[C@@H](c2ccc(N[C@H]3CCN(CCCF)C3)cn2)N1CC(F)(F)F` [Example 3, N-((S)-1-(3-fluoropropyl)pyrrolidin-3-yl)-6-((1S,3R)-3-methyl-2-(2,2,2-trifluoroethyl)-2,3,4,9-tetrahydro-1H-pyridino[3,4-b]indol-1-yl)pyridine-3-amine], the Kp at 2 h in series [1] was 4.2. Also, the results for the concentration at 2 h in series [1] (setting [2]) and in series [1] (setting [3]) were 10600 ng/g and 2620 ng/mL, respectively. Moreover, in series [1] (rats), the “Blood-brain barrier permeability (in words)” value is “excellent blood-brain barrier permeability”. In the series on MCF-7 intracranial tumor (until Day 48), the Deaths in group entry was “No death case occurred”. Also, in the series on MCF-7 intracranial tumor (P < 0.01), the “Survival period vs solvent control or Fulvestrant” value is given as “significantly prolonged”. For the same compound, the TGI with MCF-7 subcutaneous tumor (1 mg/kg PO QD) is 89.08%; in the series with MCF-7 subcutaneous tumor (3 mg/kg PO QD), 114.71%; with MCF-7 subcutaneous tumor (10 mg/kg PO QD), 138.17%. The “Average tumor volume Day 0” value with MCF-7 subcutaneous tumor (1 mg/kg PO QD) stood at 183 mm^3; with MCF-7 subcutaneous tumor (3 mg/kg PO QD), 169 mm^3; with MCF-7 subcutaneous tumor (10 mg/kg PO QD), 177 mm^3. For the same compound, the “Average tumor volume Day 21” value in the series on MCF-7 subcutaneous tumor (1 mg/kg PO QD) is listed as 207 mm^3; with MCF-7 subcutaneous tumor (3 mg/kg PO QD), 136 mm^3; in the series with MCF-7 subcutaneous tumor (10 mg/kg PO QD), 91 mm^3. Moreover, in the series with MCF-7 subcutaneous tumor, the “Effect on body weight of mice” value is “do not significantly affect the body weight”. Besides, the “Tumor shrinkage (in words)” value in the series with MCF-7 subcutaneous tumor (doses of 3 mg/kg and 10 mg/kg) is “shows an effect of shrinking tumor”. Further, the “Effect on tumor growth (in words)” value in the series with MCF-7 subcutaneous tumor (orally once daily at 1 mg/kg, 3 mg/kg or 10 mg/kg, P < 0.01) is “significant inhibitory effects”.
